According to patent publication US8637525B2, “Compounds for the reduction of beta-amyloid production” (Bristol-Myers Squibb Company, priority 2009, dated 2014):
Counter-ions that a name gives are not always drawn. Like-named read-outs stand apart in the source and are kept apart here.

Test system: Aβ1-42 production
Assay: Cellular assay for inhibition of Aβ1-42 production (H4 APP751 SWE clone 8.20)
Format: cell-based
Settings: H4 APP751 SWE clone 8.20 cells, 19 h incubation
Description: Cellular Assays for Inhibition of Aβ1-40 and Aβ1-42 Production
H4 cells stably transfected with APP751 containing the Swedish mutation (H4 APP751 SWE clone 8.20, developed at BMS) were maintained in log phase through twice weekly passage at a 1:20 split. […] Following incubation for 19 h in 5% CO2 at 37° C., plates were briefly centrifuged (1000 rpm, 5 min). A 10 μl aliquot from each well was transferred to a second assay plate (Costar 3709) for Aβ40 measurements. Antibody cocktails were freshly prepared by dilution into 40 mM Tris-HCl (pH 7.4) with 0.2% BSA and added to assay plates. For Aβ42 measurements, antibodies specific for the Aβ42 neoepitope (565, developed at BMS; conjugated to the Wallac reagent (Perkin Elmer)) and the N-terminal sequence of Aβ peptide (26D6, developed at SIBIA; conjugated to APC (Perkin Elmer)) were mixed and 20 μl of the mixture was added to each well of the incubated cell plate yielding a final concentration of 0.8 ng/well 565 and 75 ng/well 26D6. For the Aβ40 measurements, antibodies specific for the Aβ40 neoepitope (TSD, developed at BMS; conjugated to the Wallac reagent (Perkin Elmer)) and 26D6 as described above were mixed and 20 μl of the mixture was added to the 10 μl aliquots which had been removed previously from the cell plate yielding a final concentration of 1.6 ng/well TSD and 17.5 ng/well 26D6. Assay plates containing antibodies were sealed with aluminum foil and incubated overnight at 4° C. Signal was determined using a Viewlux counter (Perkin Elmer) and IC50 values determined using curve fitting in CurveMaster (Excel Fit based).

[1] = class symbols, TFA, read-out: Activity Rating (Aβ42 cellular IC50)
[2] = 19 h, class symbols, read-out: Activity Rating (Aβ42 cellular IC50)

| IC50 [2] [nM] | SMILES | other results |
| --- | --- | --- |
| 1.5 to 9.9 | COc1cc(Nc2nc(NCCCO)c3c(n2)C(c2ccc(F)cc2)CC3)ccc1-n1cnc(Cl)c1 (racemic) [Example 43, 3-(2-(4-(4-chloro-1H-imidazol-1-yl)-3-methoxyphenylamino)-7-(4-fluorophenyl)-6,7-dihydro-5H-cyclopenta[d]pyrimidin-4-ylamino)propan-1-ol] |  |
| 1.5 to 9.9 | COc1cc(Nc2nc3c(c(N(C)C)n2)CCC3c2ccc(F)cc2)ccc1-n1cnc(Cl)c1 (racemic) [Example 46, N^2-(4-(4-Chloro-1H-imidazol-1-yl)-3-methoxyphenyl)-7-(4-fluorophenyl)-N^4,N^4-dimethyl-6,7-dihydro-5H-cyclopenta[d]pyrimidine-2,4-diamine] |  |
| 10 to 100 | CCNc1nc(Nc2ccc(-n3cnc(Cl)c3)c(OC)c2)nc2c1COCC2c1ccc(F)cc1 (racemic) [Example 56, N2-(4-(4-chloro-1H-imidazol-1-yl)-3-methoxyphenyl)-N4-ethyl-8-(4-fluorophenyl)-7,8-dihydro-5H-pyrano[4,3-d]pyrimidine-2,4-diamine] |  |
| 1.5 to 9.9 | CNc1nc(Nc2ccc(-n3cnc(Cl)c3)c(OC)c2)nc2c1COCC2c1ccc(F)cc1 (racemic) [Example 60, N2-(4-(4-chloro-1H-imidazol-1-yl)-3-methoxyphenyl)-8-(4-fluorophenyl)-N4-methyl-7,8-dihydro-5H-pyrano[4,3-d]pyrimidine-2,4-diamine] |  |
| 10 to 100 | COc1cc(Nc2nc3c(c(N(C)C)n2)COCC3c2ccc(F)cc2)ccc1-n1cnc(Cl)c1 (racemic) [Example 61, N2-(4-(4-chloro-1H-imidazol-1-yl)-3-methoxyphenyl)-8-(4-fluorophenyl)-N4,N4-dimethyl-7,8-dihydro-5H-pyrano[4,3-d]pyrimidine-2,4-diamine] |  |
| 10 to 100 | CCN(C)c1nc(Nc2ccc(-n3cnc(Cl)c3)c(OC)c2)nc2c1COCC2c1ccc(F)cc1 (racemic) [Example 62, N2-(4-(4-chloro-1H-imidazol-1-yl)-3-methoxyphenyl)-N4-ethyl-8-(4-fluorophenyl)-N4-methyl-7,8-dihydro-5H-pyrano[4,3-d]pyrimidine-2,4-diamine] |  |

Continued, compound first:

| SMILES | IC50 [2] [nM] | other results |
| --- | --- | --- |
| COc1cc(Nc2nc(N[C@H](C)C3CC3)c3c(n2)C(c2ccc(F)cc2)CC3)ccc1-n1cnc(Cl)c1 (mixture of isomers) [Example 49, N2-(4-(4-chloro-1H-imidazol-1-yl)-3-methoxyphenyl)-N4-((R)-1-cyclopropylethyl)-7-(4-fluorophenyl)-6,7-dihydro-5H-cyclopenta[d]pyrimidine-2,4-diamine, 2 TFA] |  | IC50 [1]: 1.5 to 9.9 nM |
| COc1cc(Nc2nc(N[C@@H](C)C3CC3)c3c(n2)C(c2ccc(F)cc2)CC3)ccc1-n1cnc(Cl)c1 (mixture of isomers) [Example 50, N2-(4-(4-chloro-1H-imidazol-1-yl)-3-methoxyphenyl)-N4-((S)-1-cyclopropylethyl)-7-(4-fluorophenyl)-6,7-dihydro-5H-cyclopenta[d]pyrimidine-2,4-diamine, TFA] |  | IC50 [1]: 1.5 to 9.9 nM |
| COc1cc(Nc2nc3c(c(N4CC[C@@H](F)C4)n2)COC3c2ccc(F)cc2)ccc1-n1cnc(Cl)c1 (mixture of isomers) [Example 83, N-(4-(4-chloro-1H-imidazol-1-yl)-3-methoxyphenyl)-7-(4-fluorophenyl)-4-((R)-3-fluoropyrrolidin-1-yl)-5,7-dihydrofuro[3,4-d]pyrimidin-2-amine, 2 TFA] |  | IC50 [1]: 10 to 100 nM |
| Cc1ncnn1-c1ccc(Nc2nc3c(c(N4CC(F)(F)C4)n2)CCC3c2ccc(F)cc2)cc1F (racemic) [Example 16, 4-(3,3-difluoroazetidin-1-yl)-N-(3-fluoro-4-(5-methyl-1H-1,2,4-triazol-1-yl)phenyl)-7-(4-fluorophenyl)-6,7-dihydro-5H-cyclopenta[d]pyrimidin-2-amine] | 10 to 100 |  |
| COc1cc(Nc2nc3c(c(N4CC(F)(F)C4)n2)CCC3c2ccc(F)cc2)ccc1-n1cnc(Cl)n1 (racemic) [Example 17, N-(4-(3-chloro-1H-1,2,4-triazol-1-yl)-3-methoxyphenyl)-4-(3,3-difluoroazetidin-1-yl)-7-(4-fluorophenyl)-6,7-dihydro-5H-cyclopenta[d]pyrimidin-2-amine] | 10 to 100 |  |
| COc1cc(Nc2nc3c(c(N4CCC(F)(F)CC4)n2)CCC3c2ccc(F)cc2)ccc1-n1cnc(Cl)c1 (racemic) [Example 39, N-(4-(4-chloro-1H-imidazol-1-yl)-3-methoxyphenyl)-4-(4,4-difluoropiperidin-1-yl)-7-(4-fluorophenyl)-6,7-dihydro-5H-cyclopenta[d]pyrimidin-2-amine] | 10 to 100 |  |
| COc1cc(Nc2nc3c(c(N4CCC(C(F)(F)F)C4)n2)CCC3c2ccc(F)cc2)ccc1-n1cnc(Cl)c1 (racemic) [Example 41, N-(4-(4-chloro-1H-imidazol-1-yl)-3-methoxyphenyl)-7-(4-fluorophenyl)-4-(3-(trifluoromethyl)pyrrolidin-1-yl)-6,7-dihydro-5H-cyclopenta[d]pyrimidin-2-amine] | 10 to 100 |  |
| CNc1nc(Nc2ccc(-n3cnc(C)n3)c(OC)c2)nc2c1CCC2c1ccc(F)cc1 (racemic) [Example 44, 7-(4-fluorophenyl)-N2-(3-methoxy-4-(3-methyl-1H-1,2,4-triazol-1-yl)phenyl)-N4-methyl-6,7-dihydro-5H-cyclopenta[d]pyrimidine-2,4-diamine] |  | IC50 (19 h, read-out: Activity Rating (Aβ42 cellular IC50), numeric value): 13 nM |
| CCN(C)c1nc(Nc2ccc(-n3cnc(Cl)c3)c(OC)c2)nc2c1COCC2c1ccccc1 (racemic) [Example 52, N^2-(4-(4-Chloro-1H-imidazol-1-yl)-3-methoxyphenyl)-N^4-ethyl-N^4-methyl-8-phenyl-7,8-dihydro-5H-pyrano[4,3-d]pyrimidine-2,4-diamine] | 10 to 100 |  |
| COc1cc(Nc2nc3c(c(N(C)C)n2)COCC3c2ccccc2)ccc1-n1cnc(Cl)c1 (racemic) [Example 53, N^2-(4-(4-Chloro-1H-imidazol-1-yl)-3-methoxyphenyl)-N^4,N^4-dimethyl-8-phenyl-7,8-dihydro-5H-pyrano[4,3-d]pyrimidine-2,4-diamine] | 10 to 100 |  |
| CNc1nc(Nc2ccc(-n3cnc(C)n3)c(OC)c2)nc2c1COCC2c1ccc(F)cc1 (racemic) [Example 54, 8-(4-fluorophenyl)-N2-(3-methoxy-4-(3-methyl-1H-1,2,4-triazol-1-yl)phenyl)-N4-methyl-7,8-dihydro-5H-pyrano[4,3-d]pyrimidine-2,4-diamine] | 10 to 100 |  |
| CCNc1nc(Nc2ccc(-n3cnc(C)n3)c(OC)c2)nc2c1COCC2c1ccc(F)cc1 (racemic) [Example 55, N4-ethyl-8-(4-fluorophenyl)-N2-(3-methoxy-4-(3-methyl-1H-1,2,4-triazol-1-yl)phenyl)-7,8-dihydro-5H-pyrano[4,3-d]pyrimidine-2,4-diamine] | 10 to 100 |  |
| CCNc1nc(Nc2ccc(-n3ncnc3C)c(F)c2)nc2c1COCC2c1ccc(F)cc1 (racemic) [Example 59, N4-ethyl-N2-(3-fluoro-4-(5-methyl-1H-1,2,4-triazol-1-yl)phenyl)-8-(4-fluorophenyl)-7,8-dihydro-5H-pyrano[4,3-d]pyrimidine-2,4-diamine] | 10 to 100 |  |
| COc1cc(Nc2nc3c(c(N4CC(F)(F)C4)n2)COCC3c2ccc(F)cc2)ccc1-n1cnc(Cl)c1 (racemic) [Example 63, N-(4-(4-chloro-1H-imidazol-1-yl)-3-methoxyphenyl)-4-(3,3-difluoroazetidin-1-yl)-8-(4-fluorophenyl)-7,8-dihydro-5H-pyrano[4,3-d]pyrimidin-2-amine] | 10 to 100 |  |
